In patent publication US7074801B1, “Nitrogen-containing condensed cyclic compound having a pyrazolyl group as a substituent group and pharmaceutical composition thereof” (Eisai Co., Ltd., priority 2001, dated 2006):
Structures can show the parent of a compound that is named as a salt.

System: STAT6
Assay: Inhibitory test on STAT6 activation: IL-4-induced alkali phosphatase STAT6 reporter in 293 cells stably expressing the STAT6 gene and STAT6 reporter gene
Assay type: cell-based
Settings: HEK293; Table 2; 1 ng/ml human recombinant IL-4, 16 hours, 293 cells with STAT6 reporter; read-out: Inhibitory activity IC50 (concentration at which the alkali phosphatase activity induced by IL-4 was inhibited by 50%)
Summary of the method: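 HEK293 clone stably carrying STAT6 and a STAT6-element-driven alkaline phosphatase reporter, 5000 cells/well. Compound (DMSO ≤0.1%) plus 1 ng/ml human IL-4 for 16 hours. Supernatant heat-treated 65° C. 10 minutes, then alkaline phosphatase measured fluorometrically in carbonate buffer.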

IC50 [nM]	SMILES
< 10	C[C@H](NC(=O)c1ccc(-n2cnc3ccc(-c4cn[nH]c4)cc32)cc1F)C(=O)c1ccc(F)cc1 [Example 729, N1-[(1S)-2-(4-Fluorophenyl-1-methyl-2-oxoethyl)-2-fluoro-4-[6-(1H-4-pyrazolyl)-1H-benzo[d]imidazol-1-yl]benzamide hydrochloride]
< 10	CS(=O)(=O)c1cc(F)cc(N2CCN(c3ncnc4ccc(-c5cn[nH]c5)cc34)CC2)c1 [Example 845, 4-[4-(3-Fluoro-5-methylsulfonylphenyl)piperazin-1-yl]-6-(1H-4-pyrazolyl)quinazoline dihydrochloride]
100 to 1000	O=S(=O)(c1ccc(-c2ncnc3ccc(-c4c[nH]nc4-c4ccc(F)cc4)cc23)s1)N1CCCC1 [Example 850, 6-[3-(4-Fluorophenyl)-1H-pyrazol-4-yl]-4-[5-(pyrrolidine-1-sulfonyl)thiophen-2-yl]quinazoline dihydrochloride]
< 10	CN(C)CCN(C)S(=O)(=O)c1ccc(-c2ncnc3ccc(-c4c[nH]nc4-c4ccc(F)cc4)cc23)s1 [Example 855, 5-{6-[3-(4-Fluorophenyl)-1H-pyrazol-4-yl]quinazolin-4-yl}-thiophen-2-sulfonic acid (2-dimethylaminoethyl)methylamide trihydrochloride]
100 to 1000	CN(c1ccccc1)S(=O)(=O)c1ccc(-c2ncnc3ccc(-c4c[nH]nc4-c4ccc(F)cc4)cc23)s1 [Example 856, 5-{6-[3-(4-Fluorophenyl)-1H-pyrazol-4-yl]quinazolin-4-yl}-thiophen-2-sulfonic acid methylphenylamide dihydrochloride]
10 to 100	CN(CC(=O)c1ccc(F)cc1)S(=O)(=O)c1ccc(-c2ncnc3ccc(-c4c[nH]nc4-c4ccc(F)cc4)cc23)s1 [Example 866, 5-{6-[3-(4-Fluorophenyl)-1H-pyrazol-4-yl]quinazolin-4-yl}thiophen-2-sulfonic acid [2-(4-fluorophenyl) 2-oxoethyl]methylamide dihydrochloride]
10 to 100	O=C(Nc1ccc(F)cc1F)c1ccc(-c2ncnc3ccc(-c4cn[nH]c4)cc23)s1 [Example 869, 5-[6-(1H-Pyrazol-4-yl)quinazolin-4-yl]thiophen-2-carboxylic acid (2,4-difluorophenyl)amide dihydrochloride]
10 to 100	O=C(Nc1nccs1)c1ccc(-c2ncnc3ccc(-c4cn[nH]c4)cc23)cc1F [Example 872, 2-Fluoro-N-thiazol-2-yl-4-[6-(1H-pyrazol-4-yl)quinazolin-4-yl]benzamide trihydrochloride]
100 to 1000	O=C(NC1CC1)c1ccc(-c2ncnc3ccc(-c4c[nH]nc4-c4ccc(F)cc4F)cc23)cc1F [Example 873, N-Cyclopropyl-4-{6-[3-(2,4-difluorophenyl)-1H-pyrazol-4-yl]quinazolin-4-yl}-2-fluorobenzamide dihydrochloride]
10 to 100	Cc1n[nH]cc1-c1ccc2ncnc(N3CCC(Oc4cccc(C#N)c4)CC3)c2c1 [Example 876, 3-{1-[6-(3-Methyl-1H-pyrazol-4-yl)quinazolin-4-yl]piperidin-4-yloxy} benzonitrile trihydrochloride]
10 to 100	CS(=O)(=O)c1ccc(C(=O)C2CCN(c3ncnc4ccc(-c5cn[nH]c5)cc34)CC2)s1 [Example 880, (5-Methylsulfonylthiophen-2-yl)-{1-[6-(1H-pyrazol-4-yl)quinazolin-4-yl]piperidin-4-yl}methanone trihydrochloride]
< 10	CNc1ccc(-c2n[nH]cc2-c2ccc3ncnc(-c4ccc(S(C)(=O)=O)s4)c3c2)cc1 [Example 883, (4-{4-[4-(5-Methylsulfonylthiophen-2-yl)quinazolin-6-yl]-1H-pyrazol-3-yl}phenyl) methylamine]
10 to 100	CS(=O)(=O)c1ccc(-c2ncnc3ccc(-c4c[nH]nc4-c4ccc(N5CCOCC5)cc4)cc23)s1 [Example 887, 4-(5-Methylsulfonylthiophen-2-yl)-6-[3-(4-morpholin-4-ylphenyl)-1H-pyrazol-4-yl] quinazoline]
10 to 100	COc1ccc(-c2ccc(-c3n[nH]cc3-c3ccc4ncnc(-c5ccc(S(C)(=O)=O)s5)c4c3)cc2)cn1 [Example 889, 6-{3-[4-(6-Methoxypyridin-3-yl)phenyl]-1H-pyrazol-4-yl}-4-(5-methylsulfonylthiophen-2-yl) quinazoline]
< 10	Cc1ccc(-c2n[nH]cc2-c2ccc3ncnc(-c4ccc(S(C)(=O)=O)s4)c3c2)cc1 [Example 890, 4-(5-Methylsulfonylthiophen-2-yl)-6-(3-p-tolyl-1H-pyrazol-4-yl) quinazoline]
10 to 100	CS(=O)(=O)c1ccc(-c2ncnc3ccc(-c4c[nH]nc4-c4ccc(OC(F)(F)F)cc4)cc23)s1 [Example 892, 4-(5-Methylsulfonylthiophen-2-yl)-6-[3-(4-trifluoromethoxyphenyl)-1H-pyrazol-4-yl] quinazoline]
< 10	CS(=O)(=O)c1ccc(-c2ncnc3ccc(-c4c[nH]nc4-c4ccc(Cl)cc4F)cc23)s1 [Example 894, 6-[3-(4-Chloro-2-fluorophenyl)-1H-pyrazol-4-yl]-4-(5-methylsulfonylthiophen-2-yl) quinazoline]
< 10	CSc1ccc(-c2n[nH]cc2-c2ccc3ncnc(-c4ccc(S(C)(=O)=O)s4)c3c2)cc1 [Example 895, 6-[3-(4-Methylsulfanylphenyl)-1H-pyrazol-4-yl]-4-(5-methylsulfonylthiophen-2-yl) quinazoline]

IC50 [nM]	SMILES
< 10	CCS(=O)(=O)c1ccc(-c2ncnc3ccc(-c4c[nH]nc4-c4ccc(F)cc4)cc23)s1 [Example 896, 4-(5-Ethanesulfonylthiophen-2-yl)-6-[3-(4-fluorophenyl)-1H-pyrazol-4-yl] quinazoline]
< 10	CS(=O)(=O)c1cnc(-c2ncnc3ccc(-c4c[nH]nc4-c4ccc(F)cc4)cc23)s1 [Example 897, 6-[3-(4-Fluorophenyl)-1H-pyrazol-4-yl]-4-(5-methylsulfonylthiazol-2-yl) quinazoline]
< 10	CS(=O)(=O)c1cnc(-c2ncnc3ccc(-c4c[nH]nc4-c4c(F)cccc4F)cc23)s1 [Example 899, 6-[3-(2,6-Difluorophenyl)-1H-pyrazol-4-yl]-4-(5-methylsulfonylthiazol-2-yl) quinazoline]
10 to 100	CS(=O)(=O)c1ccc(-c2ncnc3ccc(-c4c[nH]nc4-c4ccc(F)cc4)cc23)o1 [Example 900, 6-[3-(4-Fluorophenyl)-1H-pyrazol-4-yl]-4-(5-methylsulfonylfuran-2-yl) quinazoline]
100 to 1000	CS(=O)(=O)c1ccc(-c2ncnc3ccc(-c4c[nH]nc4[N+](=O)[O-])cc23)s1 [Example 901, 4-(5-Methylsulfonylthiophen-2-yl)-6-(3-nitro-1H-pyrazol-4-yl) quinazoline]
< 10	O=S(=O)(c1ccc(-c2ncnc3ccc(-c4c[nH]nc4-c4ccc(F)cc4)cc23)s1)C1CC1 [Example 902, 4-(5-Cyclopropanesulfonylthiophen-2-yl)-6-[3-(4-fluorophenyl)-1H-pyrazol-4-yl] quinazoline]
< 10	O=S(=O)(c1ccc(-c2ncnc3ccc(-c4c[nH]nc4-c4ccc(F)cc4F)cc23)s1)C1CC1 [Example 903, 4-(5-Cyclopropanesulfonylthiophen-2-yl)-6-[3-(2,4-difluorophenyl)-1H-pyrazol-4-yl] quinazoline]
100 to 1000	CS(=O)(=O)c1ccc(-c2ncnc3ccc(-c4c[nH]nc4CN4CCOCC4)cc23)s1 [Example 904, 4-(5-Methylsulfonylthiophen-2-yl)-6-(3-morpholin-4-ylmethyl-1H-pyrazol-4-yl) quinazoline]
100 to 1000	CS(=O)(=O)c1ccc(-c2ncnc3ccc(-c4c[nH]nc4COc4ccc(F)cc4F)cc23)s1 [Example 905, 6-[3-(2,4-Difluorophenoxymethyl)-1H-pyrazol-4-yl]-4-(5-methylsulfonylthiophen-2-yl) quinazoline]
100 to 1000	CS(=O)(=O)c1ccc(-c2ncnc3ccc(-c4c[nH]nc4CNc4ccc(F)cc4F)cc23)s1 [Example 906, 2,4-Difluorophenyl{4-[4-(5-methylsulfonylthiophen-2-yl)quinazolin-6-yl]-1H-pyrazol-3-ylmethyl} amine]
10 to 100	Fc1ccc(-c2n[nH]cc2-c2ccc3ncnc(-c4nnc(C5CC5)o4)c3c2)c(F)c1 [Example 907, 4-(5-Cyclopropyl[1,3,4]oxadiazol-2-yl)-6-[3-(2,4-difluorophenyl)-1H-pyrazol-4-yl] quinazoline]
< 10	Fc1ccc(-c2n[nH]cc2-c2ccc3ncnc(-c4nnc(C5CC5)s4)c3c2)c(F)c1 [Example 908, 4-(5-Cyclopropyl[1,3,4]thiadiazol-2-yl)-6-[3-(2,4-difluorophenyl)-1H-pyrazol-4-yl] quinazoline]
10 to 100	COc1nnc(-c2ncnc3ccc(-c4c[nH]nc4-c4c(F)cccc4F)cc23)o1 [Example 909, 6-[3-(2,6-Difluorophenyl)-1H-pyrazol-4-yl]-4-(5-methoxy|[1,3,4]oxadiazol-2-yl) quinazoline]
< 10	Cn1cc(-c2ncnc3ccc(-c4c[nH]nc4-c4c(F)cccc4F)cc23)cn1 [Example 910, 6-[3-(2,6-Difluorophenyl)-1H-pyrazol-4-yl]-4-(1-methyl-1H-pyrazol-4-yl) quinazoline]
< 10	Cn1cnc(-c2ncnc3ccc(-c4c[nH]nc4-c4c(F)cccc4F)cc23)c1 [Example 911, 6-[3-(2,6-Difluorophenyl)-1H-pyrazol-4-yl]-4-(1-methyl-1H-imidazol-4-yl) quinazoline]
< 10	Cc1cnn(-c2ncnc3ccc(-c4c[nH]nc4-c4c(F)cccc4F)cc23)c1 [Example 913, 6-[3-(2,6-Difluorophenyl)-1H-pyrazol-4-yl]-4-(4-methylpyrazol-1-yl) quinazoline]
< 10	Cc1cn(-c2ncnc3ccc(-c4c[nH]nc4-c4c(F)cccc4F)cc23)cn1 [Example 914, 6-[3-(2,6-Difluorophenyl)-1H-pyrazol-4-yl]-4-(4-methylimidazol-1-yl) quinazoline]
